Laboratory results taken from PMC6155683, “Pharmacokinetics Studies of 12 Alkaloids in Rat Plasma after Oral Administration of Zuojin and Fan-Zuojin Formulas” (Molecules : A Journal of Synthetic Chemistry and Natural …, 2017).
Read-outs that look alike come from different tables or passages of the source. Each block holds one compound with its values, some of them ahead of it.

Key:
[1] = test system: P-gp; conditions: cited from earlier work
[2] = PK study of the 12 alkaloids in rat plasma after oral administration of ZJ and FZJ extract (LC–MS/MS); assay type: in vivo
Description: The time schedule included 15 time-points and six rats were sampled at each time-point. All the rats were orally administered with ZJ extract (suspended in water) at a dose of 3.38 g/kg body weight (dosages of the 12 alkaloids were shown in Table S4), equivalent to crude drug dose of 12 g/kg body weight. Blood samples were collected from the suborbital vein of the rats at 10, 20, 30, 60, 90, 120, 180, 240, 300, 330, 360, 480, 720, 1440, 2160 min after administration, and centrifuged immediately at 5000 rpm for 10 min. The plasma samples were stored at −20 °C until analysis.
Similarly, the time schedule of other rats included 15 time-points and six rats were orally administered with FZJ extract at a dose of 3.76 g/kg body weight (also equivalent to crude drug dose of 12 g/kg body weight, Table S4). Blood samples were collected and treated as mentioned above in the PK study of ZJ extract.
PK parameters of the 12 alkaloids including AUC0→t, AUC0→∞, mean retention time (MRT0→t, MRT0→∞), and elimination half-life (t1/2) were calculated with non-compartmental method by DAS 2.0 software (Mathematical Pharmacology Professional Committee of China, Shanghai, China). Maximum plasma drug concentration (Cmax) and time to reach the maximum plasma drug concentration (Tmax) were observed directly from the detected C–T data. The results were expressed as arithmetic mean ± standard deviation (SD).

[3] = cited from earlier work
[4] = jejunum vs ileum and colon; cited from earlier work
[5] = Stability of analytes in rat plasma under storage conditions; assay type: physicochemical; conditions: n = 6; for Stability RE, 3 freeze-thaw cycles / Stability RE, 30 days at −20 °C: rat plasma; for Stability RE, processed samples' stability: room temperature 24 h
Description: The stabilities of analytes in plasma were assessed by analyzing the QC samples at three concentration levels under the following storage conditions: after three freeze (−20 °C)-thaw (room temperature) cycles; stored at −20 °C for 30 days, and comparing the results with those of freshly prepared QC samples. Stabilities of the processed samples at room temperature for 24 h were also assessed.

[6] = cited from earlier work; remark: listed apart in the source
[7] = cited from earlier work; remark: listed apart in the source

- AUC(0-t) ([2]; 3.38 g/kg, rat plasma, oral ZJ extract, mean ± SD, n = 6, read-out: AUC0→t): 277 ± 50.1 ng·h/mL
- AUC(0-inf) ([2]; 3.38 g/kg, rat plasma, oral ZJ extract, mean ± SD, n = 6, read-out: AUC0→∞): 300 ± 55.3 ng·h/mL
- Cmax ([2]; 3.38 g/kg, rat plasma, oral ZJ extract, mean ± SD, n = 6, read-out: Cmax): 109 ± 48.3 ng/mL
- MRT last ([2]; 3.38 g/kg, rat plasma, oral ZJ extract, mean ± SD, n = 6, read-out: MRT0→t (converted)): 6.46 h
- MRT inf ([2]; 3.38 g/kg, rat plasma, oral ZJ extract, mean ± SD, n = 6, read-out: MRT0→∞ (converted)): 8.58 h
- half-life ([2]; 3.38 g/kg, rat plasma, oral ZJ extract, mean ± SD, n = 6, read-out: t1/2): 6.3 ± 3.24 h
- Tmax ([2]; 3.38 g/kg, rat plasma, oral ZJ extract, read-out: Tmax (converted)): 1.5 h
- AUC(0-t) ([2]; 3.76 g/kg, rat plasma, oral FZJ extract, mean ± SD, n = 6, read-out: AUC0→t): 48.1 ± 9.6 ng·h/mL
- AUC(0-inf) ([2]; 3.76 g/kg, rat plasma, oral FZJ extract, mean ± SD, n = 6, read-out: AUC0→∞): 50.2 ± 10.7 ng·h/mL
- Cmax ([2]; 3.76 g/kg, rat plasma, oral FZJ extract, mean ± SD, n = 6, read-out: Cmax): 23.7 ± 7.42 ng/mL
- MRT last ([2]; 3.76 g/kg, rat plasma, oral FZJ extract, mean ± SD, n = 6, read-out: MRT0→t (converted)): 4.07 h
- MRT inf ([2]; 3.76 g/kg, rat plasma, oral FZJ extract, mean ± SD, n = 6, read-out: MRT0→∞ (converted)): 4.68 h
- half-life ([2]; 3.76 g/kg, rat plasma, oral FZJ extract, mean ± SD, n = 6, read-out: t1/2): 2.22 ± 0.835 h
- Tmax ([2]; 3.76 g/kg, rat plasma, oral FZJ extract, read-out: Tmax (converted)): 3 h
- Tsec (time of the secondary peak in C–T curve) ([2]; rat plasma, oral FZJ extract): 30 min
- Csec (drug concentration of the secondary peak in C–T curve) ([2]; rat plasma, oral FZJ extract, mean ± SD, n = 6): 11.64 ± 7.28 ng/mL
- Tsec (time of the secondary peak in C–T curve) ([2]; rat plasma, oral ZJ extract): 300 min
- Csec (drug concentration of the secondary peak in C–T curve) ([2]; rat plasma, oral ZJ extract, mean ± SD, n = 6): 44.68 ± 21.28 ng/mL
- Stability RE, 3 freeze-thaw cycles ([5]; high QC concentration): −14.86%
- Stability RE, 30 days at −20 °C ([5]; high QC concentration): −14.65%
- Stability RE, 3 freeze-thaw cycles ([5]; low QC concentration): 7.87%
- Stability RE, 30 days at −20 °C ([5]; low QC concentration): −8.36%
- Stability RE, 3 freeze-thaw cycles ([5]; medium QC concentration): −1.36%
- Stability RE, 30 days at −20 °C ([5]; medium QC concentration): −13.68%
- Stability RE, processed samples' stability ([5]; high QC concentration): −13.71%
- Stability RE, processed samples' stability ([5]; low QC concentration): 9.52%
- Stability RE, processed samples' stability ([5]; medium QC concentration): 4.57%
SMILES: COc1ccc2cc3[n+](cc2c1OC)CCc1cc2c(cc1-3)OCO2 [berberine]
- P-gp substrate ([1]; not told): P-gp substrates
- primary elimination route in vivo [3]: renal excretion
- absorption rate constant (Ka) compared between intestinal sites [4]: greater than that at ileum and colon
- berberine existed as prototype ([6]; 0–36 h after intragastric administration): at least 56%
- berberine remained in the GI tract ([6]; at 36 h after intragastric administration): 24%
- absolute bioavailability [7]: less than 1%

SMILES: c1c2c(cc3c1OCO3)-c1cc3ccc4c(c3c[n+]1CC2)OCO4 [coptisine]
- P-gp substrate [1]: P-gp substrates
- Tsec (time of the secondary peak in C–T curve) ([2]; rat plasma, oral ZJ extract): 90 min
- Csec (drug concentration of the secondary peak in C–T curve) ([2]; rat, in vivo, po): 4.96 ± 2.29 ng/mL
- AUC(0-inf) ([2]; rat, in vivo, po, 3.38 g/kg): 71.6 ± 10.7 ng·h/mL
- AUC(0-t) ([2]; rat, in vivo, po, 3.38 g/kg): 68.7 ± 10.8 ng·h/mL
- Cmax ([2]; rat, in vivo, po, 3.38 g/kg): 14.1 ± 7.75 ng/mL
- MRT inf ([2]; rat, in vivo, po, 3.38 g/kg): 12.3 h
- MRT last ([2]; rat, in vivo, po, 3.38 g/kg): 10.7 h
- Tmax ([2]; rat, in vivo, po, 3.38 g/kg): 5 h
- half-life ([2]; rat, in vivo, po, 3.38 g/kg): 8.01 ± 1.92 h
- AUC(0-inf) ([2]; rat, in vivo, po, 3.76 g/kg): 11.8 ± 1.25 ng·h/mL
- AUC(0-t) ([2]; rat, in vivo, po, 3.76 g/kg): 11 ± 1.64 ng·h/mL
- Cmax ([2]; rat, in vivo, po, 3.76 g/kg): 4.78 ± 2.31 ng/mL
- MRT inf ([2]; rat, in vivo, po, 3.76 g/kg): 5.2 h
- MRT last ([2]; rat, in vivo, po, 3.76 g/kg): 4.18 h
- Tmax ([2]; rat, in vivo, po, 3.76 g/kg): 3 h
- half-life ([2]; rat, in vivo, po, 3.76 g/kg): 2.93 ± 1.22 h
- absorption rate constant (Ka) compared between intestinal sites [4]: better absorption rate at colon compared with jejunum
- Stability RE, 3 freeze-thaw cycles ([5]; high QC concentration): 0.97%
- Stability RE, 30 days at −20 °C ([5]; high QC concentration): 0.65%
- Stability RE, 3 freeze-thaw cycles ([5]; low QC concentration): 6.92%
- Stability RE, 30 days at −20 °C ([5]; low QC concentration): −11.58%
- Stability RE, 3 freeze-thaw cycles ([5]; medium QC concentration): 5.77%
- Stability RE, 30 days at −20 °C ([5]; medium QC concentration): −8.99%
- Stability RE, processed samples' stability ([5]; high QC concentration): −8.19%
- Stability RE, processed samples' stability ([5]; low QC concentration): −10.47%
- Stability RE, processed samples' stability ([5]; medium QC concentration): −2.14%
